Patent publication US5449814A, “Lignan analogues, methods of preparation thereof and anti-hyperlipemic agents” (Shionogi & Co., Ltd., priority 1991, dated 1995)
Where two headings read alike, the source gives them in different places.

Tests used:
[1] = test system: LDL; assay: Inhibitory effect on oxidative modification of LDL (copper-induced, TBA reactive substances); type: biochemical, New Zealand albino rabbits; details: rabbit LDL 0.2 mg protein/ml, 0.5 μM Cu^2+, 37° C., 24 hours; read-out: Inhibition of LDL oxidation IC50
Experimental: Inhibitory effect on oxidative modification of LDL
According to the method by Kita et al. (Proc. Natl. Acad. Sci., U.S.A, Vol. 84, 5928 (1987)), the experiment was proceeded as follows.
LDL was isolated from the blood of New Zealand albino rabbits fed with a diet containing 0.5% cholesterol for 3 weeks, and dissolved in phosphate-buffered physiological saline (final LDL concentration: 0.2 mg protein/ml). To this solution, each test compound in ethanol was added and then copper sulfate (final Cu^2+ concentration: 0.5 μM) was added thereto. The mixture was incubated at 37° C. for 24 hours.
After incubation, the content of lipid peroxides in each solution was determined as thiobarbituric acid reactive substances (TBA reactive substances). Concentration for 50% inhibition (IC50) was obtained from a linear regression curve of concentration of a compound versus % inhibition of oxidative modification of LDL. To quantify TBA reactive substances, proteins were removed from the solution after incubation, and the supernatant was examined for the content of TBA reactive substances by TBA method.

[2] = test system: cholesterol in serum; assay: Hypocholesterolemic effect in cholesterol-fed mice; type: in vivo, Male ICR mice; details: Mus musculus, po, 168 h, diet 1% cholesterol and 0.5% sodium cholate with 0.12% test compound, 7 days
Experimental: Hypocholesterolemic effect
Male ICR mice weighing 30 to 40 g were allowed to access to a diet containing 1% cholesterol and 0.5% sodium cholate supplemented with 0.12% of a test compound (no test compound in control group) ad libitum for 7 days. Then, the blood was taken and total cholesterol in serum was determined by the method of Allain (Clin. Chem., Vol. 20, 470 (1974)).
Total amount of VLDL cholesterol and LDL cholesterol was obtained by subtracting HLD cholesterol from total cholesterol. HLD cholesterol was quantified by the method of Ash and Hentschel et al. (Clin. Chem., Vol. 24, 2180 (1978)).
Hypocholesterolemic effect of a test compound was evaluated based on % reduction in cholesterol calculated using the equation shown below.

[3] = serum, read-out: Total Chol. reduction (%)
[4] = total minus HDL cholesterol, read-out: (VLDL + LDL) Chol. reduction (%)

IC50 [1] [nM]	Compound	inhibition in vivo at 0.12 % in diet [2, 3] [%]	inhibition in vivo at 0.12 % in diet [2, 4] [%]
2000	COC(=O)c1c(C(=O)c2ccc(C(C)(C)C)cc2)c(O)c2cc(OC)c(OC)c(OC)c2c1-c1ccc(OC)c(OC)c1 [Example 30, 3-[4-(t-Butyl)benzoyl]-1-(3,4-dimethoxyphenyl)-4-hydroxy-2-methoxycarbonyl-6,7,8-trimethoxynaphthalene]	7	44
1050	COC(=O)c1c(C(=O)c2ccc(C)cc2)c(O)c2cc(OC)c(OC)c(OC)c2c1-c1ccc(OC)c(OC)c1 [Example 19, 1-(3,4-Dimethoxyphenyl)-4-hydroxy-2-methoxycarbonyl-3-(4-methylbenzoyl)-6,7,8-trimethoxynaphthalene]	11	58
6560	CCC(=O)c1c(C(=O)OC)c(-c2ccc(OC)c(OC)c2)c2c(OC)c(OC)c(OC)c(COC)c2c1O [Example 74, 1-(3,4-dimethoxyphenyl)-3-(1-oxopropyl)-4-hydroxy-2-methoxycarbonyl-5-methoxymethyl-6,7,8-trimethoxynaphthalene]	6	41
820	COC(=O)c1c(C(=O)c2ccc(OC)cc2)c(O)c2cc(OC)c(OC)c(OC)c2c1-c1ccc(OC)c(OC)c1 [Example 22, 1-(3,4-Dimethoxyphenyl)-4-hydroxy-3-(4-methoxybenzoyl)-2-methoxycarbonyl-6,7,8-trimethoxynaphthalene]	12	60
